Legend:
[1] = molecular target: T1, c-KIT kinase (Seq ID no. 1) (Homo sapiens, UniProt P10721); experiment: c-KIT Kinase Assay (pyruvate kinase/lactate dehydrogenase coupled); type: biochemical; conditions: enzymatic assay, ATP 200 μM; read-out: KIT (wt)
T1 construct: GST (N); TEV cleavage site (N); purchased deCODE Biostructures

[2] = molecular target: T2, c-KIT V654A kinase (Seq ID no. 2) (Homo sapiens, UniProt P10721, V654A); experiment: c-KIT V654A Kinase Assay; type: biochemical; conditions: enzymatic assay, ATP 200 μM
T2 construct: V654A c-Kit (residues T544-V976 with N-terminal GST fusion, 47 nM); purchased deCODE Biostructures
Method: In this assay, the oxidation of NADH (measured by decrease in absorbance at 340 nm) was continuously monitored spectrophotometrically. […] The inhibition reaction was started by mixing serial diluted test compound with the above reaction mixture. The absorption at 340 nm was monitored continuously for 6 hours at 30° C. on Synergy 2 plate reader (BioTech).
The protein construct was prepared by deCODE Biostructures using procedures known in the art. The construct contains residues T544-V976 of cKit, an N-terminal tag, a GST-fusion sequence and a TEV cleavage site. This construct is identical to Seq ID no.

[3] = molecular target: T3, c-KIT D816H kinase (Seq ID no. 3) (Homo sapiens, UniProt P10721, D816H); experiment: c-KIT D816H Kinase Assay; type: biochemical; conditions: enzymatic assay, ATP 200 μM
T3 construct: GST (N); TEV cleavage site (N); purchased deCODE Biostructures
Method: In this assay, the oxidation of NADH (measured by decrease in absorbance at 340 nm) was continuously monitored spectrophotometrically. […] The inhibition reaction was started by mixing serial diluted test compound with the above reaction mixture. The absorption at 340 nm was monitored continuously for 6 hours at 30° C. on Synergy 2 plate reader (BioTech). […] The protein construct was prepared by deCODE Biostructures using procedures known in the art. The construct contains […] of cKit, an N-terminal tag, a GST-fusion sequence and a TEV cleavage site. This construct is identical to Seq ID no. 1 except for the D816H mutation.

[4] = molecular target: T4, c-KIT D816V kinase (Seq ID no. 4) (Homo sapiens, UniProt P10721, D816V); experiment: c-KIT D816V kinase Assay; type: biochemical; conditions: enzymatic assay, ATP 200 uM
T4 construct: D816V c-KIT (residues T544-V976 with N-terminal GST fusion, 16 nM); purchased deCODE Biostructures

[5] = molecular target: T5, c-KIT T670I kinase (Seq ID no. 6) (Homo sapiens, UniProt P10721, T670I); experiment: c-KIT T670I Kinase Assay; type: biochemical; conditions: enzymatic assay, ATP 200 uM
T5 construct: GST (N); TEV cleavage site (N); purchased deCODE Biostructures

GIST T1 cells = experiment: GIST T1 Cell Proliferation Assay; type: cell-based; conditions: Homo sapiens, GISTT1, 72 h, resazurin, 68 hours + 4 hours
Method: (§1) GIST48, GIST430, and GIST882 cells were obtained from J. Fletcher (Brigham and Women's Hospital, Boston, Mass.). GIST T1 cells were obtained from B. Rubin (Cleveland Clinic, Cleveland, Ohio) and Professor Takahiro Taguchi (Kochi Medical School, Nankoku, Kochi, Japan). Briefly, GIST48 and GIST 882 cells were grown in RPMI 1640 medium supplemented with 15% characterized fetal bovine serum (Invitrogen, Carlsbad, Calif.), 1 unit/mL penicillin G, 1 μg/ml streptomycin, and 0.29 mg/mL L-glutamine at 37° C., 5% CO2, and 95% humidity. GIST430 cells were grown in Ham's F10 medium supplemented with 15% characterized fetal bovine serum (Invitrogen, Carlsbad, Calif.), 30 mg/L bovine pituitary extract (BD Biosciences, San Jose, Calif.), 0.5% Mito+ serum extender (BD Biosciences, San Jose, Calif.), 1 unit/mL penicillin G, 1 μg/ml streptomycin, and 0.29 mg/mL L-glutamine at 37° C., 5% CO2, 95% humidity. GIST T1 cells were grown in DMEM medium supplemented with 10% characterized fetal bovine serum (Invitrogen, Carlsbad, Calif.), 1 unit/mL penicillin G, 1 ng/ml streptomycin, and 0.29 mg/mL L-glutamine at 37° C., 5% CO2, and 95% humidity.
A serial dilution of test compound was dispensed into a 384-well black clear bottom plate (Corning, Corning, N.Y.). […] Plates were read on a Synergy2 reader (Biotek, Winooski, Vt.) using an excitation of 540 nm and an emission of 600 nm.

[6] = molecular target: Phospho-KIT (Tyr719) in GIST430 cells (Homo sapiens, UniProt P10721); experiment: GIST430 KIT Western Blot; type: cell-based; conditions: 4 hours, read-out: pKIT suppression by western blot analysi GIST430
[7] = molecular target: Phospho-KIT (Tyr719) in GIST48 cells (Homo sapiens, UniProt P10721); experiment: GIST48 KIT Western Blot; type: cell-based; conditions: 4 hours, read-out: pKIT suppression by western blot analysi GIST48
GIST430 cells = experiment: GIST 430 Cell Proliferation Assay; type: cell-based; conditions: Homo sapiens, resazurin, 115 hours + 5 hours
Method: as §1
A serial dilution of test compound was dispensed into a 384-well black clear bottom plate (Corning, Corning, N.Y.). Two thousand five-hundred cells were added per well in 50 μL complete growth medium. Plates were incubated for 115 hours at 37° C., 5% CO2, 95% humidity. At the end of the incubation period 10 μL of a 440 μM solution of resazurin (Sigma, St. Louis, Mo.) in PBS was added to each well and incubated for an additional 5 hours at 37° C., 5% CO2, 95% humidity. Plates were read on a Synergy2 reader (Biotek, Winooski, Vt.) using an excitation of 540 nm and an emission of 600 nm.

T3 sequence (P10721 544-976 D816H): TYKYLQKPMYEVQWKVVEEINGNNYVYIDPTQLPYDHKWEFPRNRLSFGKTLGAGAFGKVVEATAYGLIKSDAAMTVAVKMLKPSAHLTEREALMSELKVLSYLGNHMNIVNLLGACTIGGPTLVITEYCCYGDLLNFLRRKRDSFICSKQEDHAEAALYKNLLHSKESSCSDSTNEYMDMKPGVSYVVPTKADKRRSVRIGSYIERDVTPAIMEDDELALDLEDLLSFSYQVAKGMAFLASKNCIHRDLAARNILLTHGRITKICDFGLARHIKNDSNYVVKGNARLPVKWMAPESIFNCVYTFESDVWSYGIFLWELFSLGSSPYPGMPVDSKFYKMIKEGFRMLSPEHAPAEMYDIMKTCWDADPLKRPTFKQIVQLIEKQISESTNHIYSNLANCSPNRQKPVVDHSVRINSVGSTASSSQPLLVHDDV
T4 sequence (P10721 544-976 D816V): as the sequence (P10721 544-976 D816H) above, with H273V counted along it
T2 sequence (P10721 544-976 V654A): as the sequence (P10721 544-976 D816H) above, with V111A, H273D counted along it
T5 sequence (P10721 544-976 T670I): as the sequence (P10721 544-976 D816H) above, with T127I, H273D counted along it
Chain of Phospho-KIT (Tyr719) in GIST430 cells (P10721 with tags, fused parts or gaps DEL560-576/V654A, form open): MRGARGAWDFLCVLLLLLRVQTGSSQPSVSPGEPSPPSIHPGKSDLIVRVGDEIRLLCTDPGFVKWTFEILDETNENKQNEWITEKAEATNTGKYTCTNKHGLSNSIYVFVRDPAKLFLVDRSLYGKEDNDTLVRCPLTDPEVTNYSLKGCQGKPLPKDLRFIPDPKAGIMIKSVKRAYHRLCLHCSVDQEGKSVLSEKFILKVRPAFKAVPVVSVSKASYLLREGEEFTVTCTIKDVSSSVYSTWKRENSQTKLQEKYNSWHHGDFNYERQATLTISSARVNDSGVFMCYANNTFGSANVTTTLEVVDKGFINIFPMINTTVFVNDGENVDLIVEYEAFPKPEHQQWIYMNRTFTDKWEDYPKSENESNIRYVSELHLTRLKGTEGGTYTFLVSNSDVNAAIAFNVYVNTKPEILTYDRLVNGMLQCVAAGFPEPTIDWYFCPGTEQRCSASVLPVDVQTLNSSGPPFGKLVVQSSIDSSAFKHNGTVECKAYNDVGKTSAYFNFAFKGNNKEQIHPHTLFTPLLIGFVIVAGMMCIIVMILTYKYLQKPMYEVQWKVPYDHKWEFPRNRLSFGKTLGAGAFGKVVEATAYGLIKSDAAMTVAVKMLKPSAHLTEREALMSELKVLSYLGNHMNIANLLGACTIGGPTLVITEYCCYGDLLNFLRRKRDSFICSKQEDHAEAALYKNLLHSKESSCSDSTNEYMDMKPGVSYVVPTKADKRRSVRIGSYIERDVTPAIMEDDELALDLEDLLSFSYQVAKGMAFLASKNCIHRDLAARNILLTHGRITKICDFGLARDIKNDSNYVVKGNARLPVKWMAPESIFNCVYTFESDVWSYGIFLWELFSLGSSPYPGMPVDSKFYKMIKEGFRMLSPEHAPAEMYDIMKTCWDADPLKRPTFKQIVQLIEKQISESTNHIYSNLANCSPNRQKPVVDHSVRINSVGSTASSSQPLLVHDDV
T1 sequence (P10721 with tags, fused parts or gaps): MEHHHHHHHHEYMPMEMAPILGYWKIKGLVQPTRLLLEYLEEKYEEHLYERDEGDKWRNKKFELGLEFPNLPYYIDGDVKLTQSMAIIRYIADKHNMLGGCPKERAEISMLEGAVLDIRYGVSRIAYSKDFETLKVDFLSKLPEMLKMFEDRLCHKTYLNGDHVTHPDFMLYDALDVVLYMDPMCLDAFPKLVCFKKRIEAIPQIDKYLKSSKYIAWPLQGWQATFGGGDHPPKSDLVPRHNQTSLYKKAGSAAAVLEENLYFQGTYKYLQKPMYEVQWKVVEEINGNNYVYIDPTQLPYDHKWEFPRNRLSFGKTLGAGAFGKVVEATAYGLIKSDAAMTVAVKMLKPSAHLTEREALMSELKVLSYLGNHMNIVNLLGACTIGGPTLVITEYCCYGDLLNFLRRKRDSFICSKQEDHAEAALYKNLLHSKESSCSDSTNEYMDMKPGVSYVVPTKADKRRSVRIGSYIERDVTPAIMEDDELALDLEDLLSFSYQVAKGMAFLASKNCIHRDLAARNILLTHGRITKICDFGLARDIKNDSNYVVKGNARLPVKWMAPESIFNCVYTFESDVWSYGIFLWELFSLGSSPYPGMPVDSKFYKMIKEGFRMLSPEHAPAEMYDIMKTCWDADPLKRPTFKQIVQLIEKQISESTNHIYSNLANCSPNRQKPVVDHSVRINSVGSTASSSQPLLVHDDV
Chain of Phospho-KIT (Tyr719) in GIST48 cells (P10721 whole entry V560D/D820A, form open): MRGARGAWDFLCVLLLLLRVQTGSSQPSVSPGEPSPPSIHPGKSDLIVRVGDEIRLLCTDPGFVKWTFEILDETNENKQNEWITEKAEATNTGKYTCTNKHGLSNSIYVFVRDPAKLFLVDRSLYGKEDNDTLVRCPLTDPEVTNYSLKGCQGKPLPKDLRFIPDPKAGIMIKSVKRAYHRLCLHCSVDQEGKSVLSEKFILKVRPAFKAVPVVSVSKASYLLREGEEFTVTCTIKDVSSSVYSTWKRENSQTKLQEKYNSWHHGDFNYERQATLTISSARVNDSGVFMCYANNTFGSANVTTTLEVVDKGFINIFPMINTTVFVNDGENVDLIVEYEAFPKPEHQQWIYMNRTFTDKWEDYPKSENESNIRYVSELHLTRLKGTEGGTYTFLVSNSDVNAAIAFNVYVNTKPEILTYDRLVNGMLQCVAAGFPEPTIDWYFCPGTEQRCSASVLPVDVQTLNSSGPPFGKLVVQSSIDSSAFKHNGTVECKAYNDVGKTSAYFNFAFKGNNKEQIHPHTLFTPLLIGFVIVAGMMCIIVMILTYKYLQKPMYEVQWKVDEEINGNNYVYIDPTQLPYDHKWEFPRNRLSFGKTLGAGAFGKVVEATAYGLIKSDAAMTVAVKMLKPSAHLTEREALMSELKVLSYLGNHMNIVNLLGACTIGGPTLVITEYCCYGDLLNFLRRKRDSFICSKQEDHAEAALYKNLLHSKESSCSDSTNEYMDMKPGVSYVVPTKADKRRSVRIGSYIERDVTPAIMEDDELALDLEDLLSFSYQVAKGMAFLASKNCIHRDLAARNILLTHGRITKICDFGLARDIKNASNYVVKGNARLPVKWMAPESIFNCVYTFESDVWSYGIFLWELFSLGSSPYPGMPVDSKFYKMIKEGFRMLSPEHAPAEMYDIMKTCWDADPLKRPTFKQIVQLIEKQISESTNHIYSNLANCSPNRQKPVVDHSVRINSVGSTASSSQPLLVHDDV

IC50 [1] [nM] | IC50 [2] [nM] | IC50 [3] [nM] | IC50 [4] [nM] | IC50 [5] [nM] | IC50 [6] [nM] | IC50 [7] [nM] | SMILES | IC50 (GIST T1 cells) [nM] | IC50 (GIST430 cells) [nM]
< 10 | < 10 | 10 to 100 | 10 to 100 | 10 to 100 |  |  | CCn1c(=O)c(-c2cc(NC(=O)Nc3ccccc3)c(F)cc2Cl)cc2cnc(NCCCN3CCOCC3)cc21 [Example 92, 1-(4-chloro-5-(1-ethyl-7-((3-morpholinopropyl)amino)-2-oxo-1,2-dihydro-1,6-naphthyridin-3-yl)-2-fluorophenyl)-3-phenylurea] | ≤ 10 | 
 |  |  |  |  | 10 to 100 | 100 to 1000 | CCn1c(=O)c(-c2cc(NC(=O)Nc3ccccc3)c(F)cc2Cl)cc2cnc(NC)cc21 [Example 3, 1-(4-chloro-5-(1-ethyl-7-(methylamino)-2-oxo-1,2-dihydro-1,6-naphthyridin-3-yl)-2-fluorophenyl)-3-phenylurea] |  | 10 to 100
